In publication PMC6627454, “Size and Flexibility Define the Inhibition of the H3N2 Influenza Endonuclease Enzyme by Calix[n]arenes” (Antibiotics, 2019):

Test system: PA endonuclease
Experiment: not given
Conditions: PA endonuclease, in vitro assays only; read-out: Inhibition Activity IC50; cited from earlier work

Compound	IC50
O=C(O)c1c[nH]cc(O)c1=O [5-hydroxy-4-pyridone-3-carboxy acid]	3.23 µM
O=c1[nH]cncc1O [5-hydroxypyrimidin-4(3H)-one]	0.15 µM

Same assay, conditions: PA endonuclease; read-out: Inhibition Activity IC50; cited from earlier work

Compound	IC50
O=C1c2c(O)c(=O)ccn2N([C@@H]2c3ccccc3SCc3c2ccc(F)c3F)[C@@H]2COCCN12 [Baloxavir Acid]	0.00023 µM

Same assay, conditions: in vitro assay, viral PA polymerase unit; read-out: IC50; cited from earlier work

Compound	IC50
O=C1c2c(O)c(=O)ccn2N([C@@H]2c3ccccc3SCc3c2ccc(F)c3F)[C@@H]2COCCN12 [Baloxavir Acid]	0.0025 µM

Test system: influenza virus
Experiment: not given
Design: method as in PMID 30184455
Conditions: clinical trials, compared to oseltamivir; cited from earlier work

Compound	reduction in viral loads
COC(=O)OCOc1c2n(ccc1=O)N([C@@H]1c3ccccc3SCc3c1ccc(F)c3F)[C@@H]1COCCN1C2=O [Baloxavir Marboxil]	greater reduction in viral loads

Molecular target: H3N2 influenza PA endonuclease (Influenza A virus, UniProt P31343)
Experiment: PA endonuclease inhibition assay (λ-DNA digestion, agarose gel electrophoresis)
Type: biochemical, Influenza A/Victoria/3/1975 (H3N2)
Conditions: 0.5 µg λ-DNA, PA endonuclease 0.5 mg/mL, 1 h at 37 °C, 1 mM MnCl2, pH 8; 3 measurements
Description: The digestion activity of the purified PA endonuclease was quantified using agarose gel electrophoresis. A concentration range of PA endonuclease (0.5 mg/mL to 0.5 µg/mL) was mixed with 0.5 µg of λ-DNA (Takara, Japan) in buffer at a final concentration of 20 mM Tris HCl pH 8, 100 mM NaCl, 1 mM MnCl2, 10 mM β-mercaptoethanol. After one hour of incubation at 37 °C, the samples were deposited on ethidium bromide treated agarose gel 0.6% and run during 90 minutes at 75 V. The gel was then scanned (Figure S2). 100 µM solutions of each macrocyclic molecules (Scheme 1) were mixed with 0.5 µg of buffered λ-DNA. This mixture was then combined with the PA endonuclease enzyme and incubated for 1 hour at 37 °C. The samples were deposited on agarose gel 0.6% previously mixed with ethidium bromide and run during 90 minutes at 75 V, after which the gel was scanned. Digestion activity was plotted as a function of inhibitor concentration by quantifying the intensity of the digested bands with ImageJ software. The IC50 values were calculated as in our work on endonuclease inhibition. The intensity of λ-DNA bands was subtracted from negative control (λ-DNA lane) and then normalized from the positive control (λ-DNA and PA protein lane without inhibitor).
100 µM of each macrocyclic molecules β-CDsul, SC[n]a, SC[n]b, and SC[n]c (Figure 1) have been mixed to 0.5 µg of λ-DNA in a buffer at final concentration of 20 mM Tris HCl pH 8, 100 mM NaCl, 1 mM MnCl2, 10 mM β-mercaptoethanol.
The mixture was then mixed with the PA endonuclease enzyme at 0.5 mg/mL and incubated for 1 h at 37 °C.
The samples have been deposited on agarose gel 0.6% previously mixed with ethidium bromide and run over 90 min at 75 V. The gel was then scanned on the ChemiDoc XRS system (Bio-Rad).
The digestion activity is then plotted as a matter of inhibitor concentration by quantifying the intensity of the digested bands with ImageJ software.

Compound	IC50
O=P(O)(O)Oc1c2cccc1Cc1cccc(c1O)Cc1cccc(c1OP(=O)(O)O)Cc1cccc(c1O)C2 [C4diP, Calix[4]arene dihydroxyphosphonic acid]	> 100 µM
O=S(=O)(O)OC[C@H]1O[C@@H]2O[C@H]3[C@H](OS(=O)(=O)O)[C@@H](OS(=O)(=O)O)[C@@H](O[C@H]4[C@H](OS(=O)(=O)O)[C@@H](OS(=O)(=O)O)[C@@H](O[C@H]5[C@H](OS(=O)(=O)O)[C@@H](OS(=O)(=O)O)[C@@H](O[C@H]6[C@H](OS(=O)(=O)O)[C@@H](OS(=O)(=O)O)[C@@H](O[C@H]7[C@H](OS(=O)(=O)O)[C@@H](OS(=O)(=O)O)[C@@H](O[C@H]8[C@H](OS(=O)(=O)O)[C@@H](OS(=O)(=O)O)[C@@H](O[C@H]1[C@H](OS(=O)(=O)O)[C@H]2OS(=O)(=O)O)O[C@@H]8COS(=O)(=O)O)O[C@@H]7COS(=O)(=O)O)O[C@@H]6COS(=O)(=O)O)O[C@@H]5COS(=O)(=O)O)O[C@@H]4COS(=O)(=O)O)O[C@@H]3COS(=O)(=O)O [CD, Sulfated β-cyclodextrin, reference compound]	> 100 µM
O=S(=O)(O)c1cc2c(O)c(c1)Cc1cc(S(=O)(=O)O)cc(c1O)Cc1cc(S(=O)(=O)O)cc(c1O)Cc1cc(S(=O)(=O)O)cc(c1O)C2 [SC4a, para-sulfonato-calix[4]arene]	> 100 µM
O=S(=O)(O)CCCOc1c2cccc1Cc1cccc(c1OCCCS(=O)(=O)O)Cc1cccc(c1OCCCS(=O)(=O)O)Cc1cccc(c1OCCCS(=O)(=O)O)C2 [SC4b]	> 100 µM
O=S(=O)(O)CCCOc1c2cc(S(=O)(=O)O)cc1Cc1cc(S(=O)(=O)O)cc(c1OCCCS(=O)(=O)O)Cc1cc(S(=O)(=O)O)cc(c1OCCCS(=O)(=O)O)Cc1cc(S(=O)(=O)O)cc(c1OCCCS(=O)(=O)O)C2 [SC4c]	> 100 µM
O=S(=O)(O)c1cc2c(O)c(c1)Cc1cc(S(=O)(=O)O)cc(c1O)Cc1cc(S(=O)(=O)O)cc(c1O)Cc1cc(S(=O)(=O)O)cc(c1O)Cc1cc(S(=O)(=O)O)cc(c1O)Cc1cc(S(=O)(=O)O)cc(c1O)C2 [SC6a]	11.2 ± 3.6 µM
O=S(=O)(O)CCCOc1c2cccc1Cc1cccc(c1OCCCS(=O)(=O)O)Cc1cccc(c1OCCCS(=O)(=O)O)Cc1cccc(c1OCCCS(=O)(=O)O)Cc1cccc(c1OCCCS(=O)(=O)O)Cc1cccc(c1OCCCS(=O)(=O)O)C2 [SC6b]	> 100 µM
O=S(=O)(O)CCCOc1c2cc(S(=O)(=O)O)cc1Cc1cc(S(=O)(=O)O)cc(c1OCCCS(=O)(=O)O)Cc1cc(S(=O)(=O)O)cc(c1OCCCS(=O)(=O)O)Cc1cc(S(=O)(=O)O)cc(c1OCCCS(=O)(=O)O)Cc1cc(S(=O)(=O)O)cc(c1OCCCS(=O)(=O)O)Cc1cc(S(=O)(=O)O)cc(c1OCCCS(=O)(=O)O)C2 [SC6c]	> 100 µM
O=S(=O)(O)c1cc2c(O)c(c1)Cc1cc(S(=O)(=O)O)cc(c1O)Cc1cc(S(=O)(=O)O)cc(c1O)Cc1cc(S(=O)(=O)O)cc(c1O)Cc1cc(S(=O)(=O)O)cc(c1O)Cc1cc(S(=O)(=O)O)cc(c1O)Cc1cc(S(=O)(=O)O)cc(c1O)Cc1cc(S(=O)(=O)O)cc(c1O)C2 [SC8a, para-sulfonato-calix[8]arene]	6.4 ± 1.4 µM
O=S(=O)(O)CCCOc1c2cccc1Cc1cccc(c1OCCCS(=O)(=O)O)Cc1cccc(c1OCCCS(=O)(=O)O)Cc1cccc(c1OCCCS(=O)(=O)O)Cc1cccc(c1OCCCS(=O)(=O)O)Cc1cccc(c1OCCCS(=O)(=O)O)Cc1cccc(c1OCCCS(=O)(=O)O)Cc1cccc(c1OCCCS(=O)(=O)O)C2 [SC8b]	14 ± 2.2 µM
O=S(=O)(O)CCCOc1c2cc(S(=O)(=O)O)cc1Cc1cc(S(=O)(=O)O)cc(c1OCCCS(=O)(=O)O)Cc1cc(S(=O)(=O)O)cc(c1OCCCS(=O)(=O)O)Cc1cc(S(=O)(=O)O)cc(c1OCCCS(=O)(=O)O)Cc1cc(S(=O)(=O)O)cc(c1OCCCS(=O)(=O)O)Cc1cc(S(=O)(=O)O)cc(c1OCCCS(=O)(=O)O)Cc1cc(S(=O)(=O)O)cc(c1OCCCS(=O)(=O)O)Cc1cc(S(=O)(=O)O)cc(c1OCCCS(=O)(=O)O)C2 [SC8c]	18.7 ± 0.7 µM

Same assay, conditions: macrocycle at 100 µM

Compound	inhibitory effect on PA endonuclease
O=P(O)(O)Oc1c2cccc1Cc1cccc(c1O)Cc1cccc(c1OP(=O)(O)O)Cc1cccc(c1O)C2 [C4diP, Calix[4]arene dihydroxyphosphonic acid]	neither SC4 and its derivatives nor C4diP show any inhibitory effects
O=S(=O)(O)c1cc2c(O)c(c1)Cc1cc(S(=O)(=O)O)cc(c1O)Cc1cc(S(=O)(=O)O)cc(c1O)Cc1cc(S(=O)(=O)O)cc(c1O)C2 [SC4a, para-sulfonato-calix[4]arene]	neither SC4 and its derivatives nor C4diP show any inhibitory effects
